Series [1] is described as follows: Permeability in a porcine brain endothelial cell model of the blood-brain barrier. Conditions: pig, luminal (apical) to basal, PBECs/As. In kind it is in vitro ADME. An excerpt: Compounds disclosed herein show the potential to reach mammalian brain by crossing the blood-brain barrier (BBB) from systemic circulation. […] The porcine brain endothelial cell permeability assay is an in vitro BBB model to be used for the prediction of central nervous system (CNS) drug permeability in vivo and for ranking or prioritization of compounds according to their permeability. This system can also be used for mechanistic studies and drug delivery strategies via receptor-mediated transport (transcytosis). The system is a two-dimensional co-culture, non-contact model of two types of primary cells: primary brain endothelial cells obtained from fresh porcine brains, and primary rat astrocytes, obtained from neonatal rats (PBECs/As). This ensures barrier formation and functional expression of key transporters.
The endothelial cells were cultured on rat-tail collagen type I and human fibronectin coated Transwell polycarbonate inserts (surface area 0.7 cm^2; pore size 0.4 μm) and the inserts were placed in 24-well plates containing confluent rat astrocytes. This system allows for the formation of a differentiated BBB model suitable for compound permeability in 10 days.
On the day of the experiment, culture medium was removed and cells were pre-incubated for 30 min with HBSS containing 20 mM Hepes pH 7.4 and 0.1% BSA. Donor volume (apical) was 400 μl and receiver volume (basal) 900 μl. Compounds were diluted in assay medium (at the desired concentration) and added to the luminal side (to mimic blood to brain passage). Transport was measured usually after 60 min by detecting the amount of compound from the basal (brain side). The integrity of the cell layers was assessed by measuring the transendothelial electrical resistance (TEER) and by monitoring FITC-dextran (40 KDa) permeation. Inserts with TEER values>500 Ω/cm^2 were selected for permeability studies. […] Fluorescence was measured using a fluorimetric detector. Radioactivity was measured by scintillation counting. […] After reconstitution, samples were analyzed by LC-MS/MS. Mass balance was determined considering the amount of compound recovered in the donor and receiver chamber at the end of the assay relative to the amount added to the donor chamber at time 0.
Permeability was defined as the apparent permeability coefficient (Papp), which is a measure of the appearance rate of the compound in the receiver chamber, expressed in cm/s. Papp is calculated according the following equation: […]
To correct for the contribution of filter and substrate, Papp was also determined for the cell-free system. Permeability of the endothelial cell layer was determined using the following equation: […]

Series [2] can be described thus: Stability of compounds in human hepatocytes. In kind it is in vitro ADME. Particulars: cryopreserved human hepatocytes in suspension, 37° C., 0-240 min. The procedure: Stability in hepatocytes for select compounds disclosed in the application was evaluated in two species (mouse and human) according to the following procedure. Compounds and positive control samples were dissolved in 100% DMSO at 5 mM. Cryopreserved hepatocytes were thawed and resuspended in Hepatocyte Basal Medium (HBM-Lonza CC-3199) supplemented with CC-4182 (complete hepatocyte culture medium). Test compounds were diluted into cell suspension (1 million cells/ml) from the stock solutions to have a test compound concentration of 5 μM (0.1% DMSO). Incubation was performed in 24-well plates, at 37° C. in a DUBNOFF water bath, under low shaking. Each compound was tested at 6 time points, in duplicates (0, 15, 30, 60, 120, and 240 min). At each time point, an aliquot of 120 μl was taken and transferred to a 96-well deep plate. The reaction was stopped with the addition of one volume of 100% acetonitrile plus 0.1% formic acid and the appropriate internal standard. Samples then were centrifuged at 1100×g for 30 min at +4° C. and supernatants were transferred to a new 96-deepwell plate. Samples were evaporated under N2 and reconstituted in H2O/ACN 0.1% formic Acid (98:2). Analysis was performed without a calibration curve (Acquity UPLC-Waters; Sciex API4000). Time 0 was obtained adding acetonitrile before addition of the test compound. Stability was determined based on analysis of disappearance of the compounds as a function of incubation time. Quantification of test compounds was measured as a peak area relative to an internal standard. The elimination constant, k, is calculated by plotting mean disappearance values on a semi-logarithmic scale and fitting with a best fit linear regression. The half-life (t1/2) expressed in hours was derived using Equation 1:
t1/2=ln 2/(−k). Equation 1: […]

Where [3] appears, read: pH 7.4, Diastereoisomer A (upfield shift in 31P NMR), read-out: Papp Diastereoisomer A.
The mark [4] stands for this setting: pH 7.4, Diastereoisomer B, read-out: Papp Diastereoisomer B.
[5] abbreviates: Diastereoisomer A (upfield shift in 31P NMR), read-out: t1/2 (h) Human Hepatocytes Diastereoisomer A (converted).
Setting [6] is: Diastereoisomer B, read-out: t1/2 (h) Human Hepatocytes Diastereoisomer B (converted).

Consider two molecules from patent publication US20190337971A1, “PANTETHEINE DERIVATIVES FOR THE TREATMENT OF NEUROLOGIC DISORDERS” (Retrophin, Inc., priority 2016, published 2019).

Like-named read-outs stand apart in the source and are kept apart here.

Regarding `CC(=O)SCCNC(=O)CCNC(=O)[C@@H]1OP(=O)(OCOC(=O)c2scnc2C)OCC1(C)C` (stereo partly drawn) [R1006, (((4R)-4-((3-((2-(acetylthio)ethyl)amino)-3-oxopropyl)carbamoyl)-5,5-dimethyl-2-oxido-1,3,2-dioxaphosphinan-2-yl)oxy)methyl 4-methylthiazole-5-carboxylate], the Papp A→B at 60 min stood at 3.17 ×10⁻⁶ cm/s in series [1] (setting [3]) and 3.18 ×10⁻⁶ cm/s in series [1] (setting [4]). In addition, the half-life at 5 μM in series [2] (setting [5]) is 0.42 h; in series [2] (setting [6]), 0.35 h.
For `CC(=O)SCCNC(=O)CCNC(=O)[C@@H]1OP(=O)(OCOC(=O)c2cc(C)nn2C)OCC1(C)C` (stereo partly drawn) [R1007, (((4R)-4-((3-((2-(acetylthio)ethyl)amino)-3-oxopropyl)carbamoyl)-5,5-dimethyl-2-oxido-1,3,2-dioxaphosphinan-2-yl)oxy)methyl 1,3-dimethyl-1H-pyrazole-5-carboxylate], the Papp A→B at 60 min stood at 3.1 ×10⁻⁶ cm/s in series [1] (setting [3]) and 3.6 ×10⁻⁶ cm/s in series [1] (setting [4]). Moreover, the values for the half-life at 5 μM in series [2] (setting [5]) and in series [2] (setting [6]) were 0.25 h and 0.21 h, respectively.
